# Results as given in patent US20100298141A1, “SUBSTITUTED PYRIDINE N-OXIDE HERBICIDES” (E. I. DU PONT DE NEMOURS AND COMPANY, priority 2007, published 2010).
# Columns and labels:
# [1] = test system: barnyardgrass; assay: Test B flooded paddy test; format: in vivo, Echinochloa crus-galli; conditions: Flood, 250 g ai/ha, 13 to 15 days; scale 0 to 100, 0 no effect, 100 complete control
# In short: (§1)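 Flooded 3 cm over soil; compound into paddy water; depth kept constant. Greenhouse 13–15 d.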
# [2] = test system: duck salad; assay: Test B flooded paddy test; format: in vivo, Heteranthera limosa; conditions: Flood, 250 g ai/ha, 13 to 15 days; scale 0 to 100, 0 no effect, 100 complete control
# In short: as §1
# [3] = test system: umbrella sedge; assay: Test B flooded paddy test; format: in vivo, Cyperus difformis; conditions: Flood, 250 g ai/ha, 13 to 15 days; scale 0 to 100, 0 no effect, 100 complete control
# In short: as §1
# [4] = test system: downy bromegrass; assay: Test D preemergence test; format: in vivo, Bromus tectorum; conditions: scale 0 to 100
# In short: (§2)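 Test chemicals, formulated in a surfactant-containing non-phytotoxic solvent mixture, are applied preemergence after the seeds are planted. Entries shown as a dash mean no result was obtained.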
# [5] = test system: field violet; assay: Test D preemergence test; format: in vivo, Viola arvensis; conditions: scale 0 to 100
# In short: as §2
# [6] = test system: green foxtail; assay: Test D preemergence test; format: in vivo, Setaria viridis; conditions: scale 0 to 100
# In short: as §2
# [7] = test system: Italian ryegrass; assay: Test D preemergence test; format: in vivo, Lolium multiflorum; conditions: scale 0 to 100
# In short: as §2
# [8] = test system: spring wheat; assay: Test D preemergence test; format: in vivo, Triticum aestivum; conditions: scale 0 to 100
# In short: as §2
# [9] = test system: winter wheat; assay: Test D preemergence test; format: in vivo, Triticum aestivum; conditions: scale 0 to 100
# In short: as §2
# [10] = test system: wild oat; assay: Test D preemergence test; format: in vivo, Avena fatua; conditions: scale 0 to 100
# In short: as §2
# [11] = test system: windgrass; assay: Test D preemergence test; format: in vivo, Apera spica-venti; conditions: scale 0 to 100
# In short: as §2
# [12] = test system: barnyardgrass; assay: Test G preemergence test; format: in vivo, Echinochloa crus-galli; conditions: scale 0 to 100
# [13] = test system: broadleaf signalgrass; assay: Test G preemergence test; format: in vivo, Brachiaria platyphylla; conditions: scale 0 to 100
# [14] = test system: corn; assay: Test G preemergence test; format: in vivo, Zea mays; conditions: scale 0 to 100
# [15] = test system: eastern black nightshade; assay: Test G preemergence test; format: in vivo, Solanum ptycanthum; conditions: scale 0 to 100
# [16] = test system: fall panicum; assay: Test G preemergence test; format: in vivo, Panicum dichotomiflorum; conditions: scale 0 to 100
# [17] = test system: giant foxtail; assay: Test G preemergence test; format: in vivo, Setaria faberii; conditions: scale 0 to 100
# [18] = test system: goosegrass; assay: Test G preemergence test; format: in vivo, Eleusine indica; conditions: scale 0 to 100
# [19] = test system: lambsquarters; assay: Test G preemergence test; format: in vivo, Chenopodium album; conditions: scale 0 to 100
# [20] = test system: large crabgrass; assay: Test G preemergence test; format: in vivo, Digitaria sanguinalis; conditions: scale 0 to 100
# [21] = test system: sorghum; assay: Test G preemergence test; format: in vivo, Sorghum vulgare; conditions: scale 0 to 100
# [22] = test system: soybean; assay: Test G preemergence test; format: in vivo, Glycine max; conditions: scale 0 to 100
# [23] = test system: tall waterhemp; assay: Test G preemergence test; format: in vivo, Amaranthus tuberculatos; conditions: scale 0 to 100
# [24] = test system: yellow foxtail; assay: Test G preemergence test; format: in vivo, Pennisetum glaucum; conditions: scale 0 to 100
# [25] = test system: woolly cupgrass; assay: Test G preemergence test; format: in vivo, Eriochloa villosa; conditions: scale 0 to 100
compound,measurement,setting,value
Cc1cc[n+]([O-])c([S+]([O-])Cc2c(C(F)(F)F)nn(C)c2OC(F)F)c1 (stereo not shown) [Compound 1],"Plant response rating, Barnyardgrass",[1],80
same,"Plant response rating, Ducksalad",[2],90
same,"Plant response rating, Umbrella Sedge",[3],100
same,"Plant response rating, Bromegrass, Downy",[4]; 31 g ai/ha,0
same,"Plant response rating, Bromegrass, Downy",[4]; 62 g ai/ha,30
same,"Plant response rating, Bromegrass, Downy",[4]; 125 g ai/ha,40
same,"Plant response rating, Bromegrass, Downy",[4]; 250 g ai/ha,40
same,"Plant response rating, Field Violet",[5]; 31 g ai/ha,20
same,"Plant response rating, Field Violet",[5]; 62 g ai/ha,20
same,"Plant response rating, Field Violet",[5]; 125 g ai/ha,20
same,"Plant response rating, Field Violet",[5]; 250 g ai/ha,75
same,"Plant response rating, Foxtail, Green",[6]; 31 g ai/ha,0
same,"Plant response rating, Foxtail, Green",[6]; 62 g ai/ha,95
same,"Plant response rating, Foxtail, Green",[6]; 125 g ai/ha,100
same,"Plant response rating, Foxtail, Green",[6]; 250 g ai/ha,100
same,"Plant response rating, Ryegrass, Italian",[7]; 31 g ai/ha,0
same,"Plant response rating, Ryegrass, Italian",[7]; 62 g ai/ha,20
same,"Plant response rating, Ryegrass, Italian",[7]; 125 g ai/ha,30
same,"Plant response rating, Ryegrass, Italian",[7]; 250 g ai/ha,95
same,"Plant response rating, Wheat, Spring",[8]; 31 g ai/ha,0
same,"Plant response rating, Wheat, Spring",[8]; 62 g ai/ha,0
same,"Plant response rating, Wheat, Spring",[8]; 125 g ai/ha,30
same,"Plant response rating, Wheat, Spring",[8]; 250 g ai/ha,45
same,"Plant response rating, Wheat, Winter",[9]; 31 g ai/ha,0
same,"Plant response rating, Wheat, Winter",[9]; 62 g ai/ha,5
same,"Plant response rating, Wheat, Winter",[9]; 125 g ai/ha,50
same,"Plant response rating, Wheat, Winter",[9]; 250 g ai/ha,60
same,"Plant response rating, Oat, Wild",[10]; 31 g ai/ha,0
same,"Plant response rating, Oat, Wild",[10]; 62 g ai/ha,0
same,"Plant response rating, Oat, Wild",[10]; 125 g ai/ha,20
same,"Plant response rating, Oat, Wild",[10]; 250 g ai/ha,40
same,"Plant response rating, Windgrass",[11]; 31 g ai/ha,10
same,"Plant response rating, Windgrass",[11]; 62 g ai/ha,70
same,"Plant response rating, Windgrass",[11]; 125 g ai/ha,100
same,"Plant response rating, Windgrass",[11]; 250 g ai/ha,100
same,"Plant response rating, Barnyardgrass",[12]; 31 g ai/ha,20
same,"Plant response rating, Barnyardgrass",[12]; 62 g ai/ha,65
same,"Plant response rating, Barnyardgrass",[12]; 125 g ai/ha,100
same,"Plant response rating, Barnyardgrass",[12]; 250 g ai/ha,100
same,"Plant response rating, Signalgrass",[13]; 31 g ai/ha,20
same,"Plant response rating, Signalgrass",[13]; 62 g ai/ha,70
same,"Plant response rating, Signalgrass",[13]; 125 g ai/ha,70
same,"Plant response rating, Signalgrass",[13]; 250 g ai/ha,100
same,"Plant response rating, Corn",[14]; 31 g ai/ha,0
same,"Plant response rating, Corn",[14]; 62 g ai/ha,5
same,"Plant response rating, Corn",[14]; 125 g ai/ha,10
same,"Plant response rating, Corn",[14]; 250 g ai/ha,45
same,"Plant response rating, Nightshade",[15]; 31 g ai/ha,0
same,"Plant response rating, Nightshade",[15]; 62 g ai/ha,30
same,"Plant response rating, Nightshade",[15]; 125 g ai/ha,100
same,"Plant response rating, Nightshade",[15]; 250 g ai/ha,100
same,"Plant response rating, Fall Panicum",[16]; 31 g ai/ha,0
same,"Plant response rating, Fall Panicum",[16]; 62 g ai/ha,10
same,"Plant response rating, Fall Panicum",[16]; 125 g ai/ha,30
same,"Plant response rating, Fall Panicum",[16]; 250 g ai/ha,100
same,"Plant response rating, Foxtail, Giant",[17]; 31 g ai/ha,20
same,"Plant response rating, Foxtail, Giant",[17]; 62 g ai/ha,95
same,"Plant response rating, Foxtail, Giant",[17]; 125 g ai/ha,100
same,"Plant response rating, Foxtail, Giant",[17]; 250 g ai/ha,100
same,"Plant response rating, Goosegrass",[18]; 31 g ai/ha,70
same,"Plant response rating, Goosegrass",[18]; 62 g ai/ha,90
same,"Plant response rating, Goosegrass",[18]; 125 g ai/ha,100
same,"Plant response rating, Goosegrass",[18]; 250 g ai/ha,100
same,"Plant response rating, Lambsquarters",[19]; 31 g ai/ha,0
same,"Plant response rating, Lambsquarters",[19]; 62 g ai/ha,100
same,"Plant response rating, Lambsquarters",[19]; 125 g ai/ha,100
same,"Plant response rating, Lambsquarters",[19]; 250 g ai/ha,100
same,"Plant response rating, Crabgrass, Large",[20]; 31 g ai/ha,10
same,"Plant response rating, Crabgrass, Large",[20]; 62 g ai/ha,100
same,"Plant response rating, Crabgrass, Large",[20]; 125 g ai/ha,100
same,"Plant response rating, Crabgrass, Large",[20]; 250 g ai/ha,100
same,"Plant response rating, Sorghum",[21]; 31 g ai/ha,0
same,"Plant response rating, Sorghum",[21]; 62 g ai/ha,0
same,"Plant response rating, Sorghum",[21]; 125 g ai/ha,40
same,"Plant response rating, Sorghum",[21]; 250 g ai/ha,50
same,"Plant response rating, Soybean",[22]; 31 g ai/ha,0
same,"Plant response rating, Soybean",[22]; 62 g ai/ha,20
same,"Plant response rating, Soybean",[22]; 125 g ai/ha,20
same,"Plant response rating, Soybean",[22]; 250 g ai/ha,25
same,"Plant response rating, Waterhemp",[23]; 31 g ai/ha,40
same,"Plant response rating, Waterhemp",[23]; 62 g ai/ha,100
same,"Plant response rating, Waterhemp",[23]; 125 g ai/ha,100
same,"Plant response rating, Waterhemp",[23]; 250 g ai/ha,100
same,"Plant response rating, Foxtail, Yellow",[24]; 31 g ai/ha,20
same,"Plant response rating, Foxtail, Yellow",[24]; 62 g ai/ha,100
same,"Plant response rating, Foxtail, Yellow",[24]; 125 g ai/ha,100
same,"Plant response rating, Foxtail, Yellow",[24]; 250 g ai/ha,100
same,"Plant response rating, Cupgrass, Woolly",[25]; 31 g ai/ha,30
same,"Plant response rating, Cupgrass, Woolly",[25]; 62 g ai/ha,70
same,"Plant response rating, Cupgrass, Woolly",[25]; 125 g ai/ha,50
same,"Plant response rating, Cupgrass, Woolly",[25]; 250 g ai/ha,100
